Experimental data taken from paper PMC4604124, “In Vitro Characterization of the Pharmacological Properties of the Anti-Cancer Chelator, Bp4eT, and Its Phase I Metabolites” (PLoS ONE, 2015).
“And” between values parts separate entries of the source, which are not always exact repeats. Identical values can stand only once.

Experiments:
[1] = tested on: cancer cells (HL-60, MCF-7, HCT116, A549) and non-cancerous cells (H9c2, 3T3); experiment: MTT cytotoxicity assay, summary over the cell line panel; format: cell-based; details: HL-60, MCF-7, HCT116, A549; 72 h; read-out: IC50, range over cancer cells
Procedure: (§1) For cytotoxicity experiments, cancer cells were seeded at a density of 5,000 (MCF-7), 10,000 (HL-60) or 2,000 cells/well (HCT116 and A549) in 96-well plates (TPP) for 24 h/37°C prior to the addition of examined agents. The non-cancerous cells, 3T3 and H9c2 cells, were cultured for 24 h/37°C in 96-well plates at a density of 10,000 cells/well, the medium was then changed to serum- and pyruvate-free DMEM (Sigma-Aldrich) and incubated with the cells for another 24 h/37°C. The cytotoxic effects of Bp4eT and its metabolites were studied at different concentrations after a 72 h/37°C incubation. In order to aid the dissolution of the lipophilic ligands, 0.1% dimethyl sulfoxide (v/v) (DMSO; Sigma-Aldrich) was present in the culture medium of all groups. At this concentration, DMSO had no effect on cellular proliferation or viability.
(§2) The viability of cells were determined using an MTT assay (Sigma-Aldrich) according to previously established methods. The optical density of soluble MTT was measured at λ = 570 nm, subtracting the λ = 690 nm background using a Tecan Infinite 200M plate reader (Tecan Group, Männedorf, Switzerland). The viability or proliferation of experimental groups was expressed as a percentage of the untreated controls (100%).
(§3) SigmaStat for Windows 3.5 (Systat Software, San Jose, CA, USA) statistical software package was utilized to analyze results. The data are expressed as the mean ± SD of a given number of experiments. Statistical significance was determined using a one-way ANOVA with a Bonferroni post-hoc test or Student’s t-test. The results were considered to be statistically significant when p < 0.05. The IC50 values were calculated using CalcuSyn 2.0 software (Biosoft, Cambridge, UK). Cell cycle analysis was evaluated using MultiCycle AV Software (Phoenix Flow Systems, San Diego, CA, USA).

MCF-7 cells = experiment: Cellular 59Fe uptake from 59Fe2-transferrin; format: cell-based, human; details: 25 μM, 3 h/37°C, MCF-7, 0.75 μM 59Fe2-Tf
Source text: Human transferrin (Sigma) was labeled with ^56Fe or ^59Fe (PerkinElmer, Massachusetts, USA) to produce ^56Fe2-transferrin or ^59Fe2-transferrin (^59Fe2-Tf), respectively, with a final specific activity of 500 pCi/pmol Fe, as previously described. Unbound ^59Fe was removed by exhaustive vacuum dialysis against a large excess of 0.15 M NaCl buffered to pH 7.4 with 1.4% NaHCO3 by standard methods.
The ability of the chelators to prevent cellular ^59Fe uptake from ^59Fe2-transferrin was examined using standard techniques. In brief, confluent MCF-7 cells in 6-well plates were incubated with 0.75 μM ^59Fe2-Tf for 3 h/37°C in the presence of Bp4eT or its metabolites (25 μM). The cells were then washed four times with ice-cold PBS and the level of internalized ^59Fe was determined by incubating the cell monolayer for 30 min/4°C with the general protease, Pronase (1 mg/mL; Sigma-Aldrich). The cells were then removed from the monolayer with a plastic spatula on ice and centrifuged for 1 min/12,000 x g/4°C. The supernatant represents membrane-bound, Pronase-sensitive ^59Fe that was released by the protease, while the Pronase-insensitive fraction represents internalized ^59Fe. The amount of internalized ^59Fe was expressed as a percentage of ^59Fe internalized by control (untreated) cells.

H9c2 cardiomyoblasts = experiment: MTT cytotoxicity assay, H9c2 cells; format: cell-based, rat; details: H9c2, 72 h/37°C, MTT; mean ± SD, n ≥ 4; read-out: IC50
Procedure: as §1, §2, §3

[2] = tested on: labile iron pool of MCF-7 cells; experiment: Calcein-AM assay, access to the labile iron pool; format: cell-based, human; details: 10 μM, MCF-7, mean of 6 experiments
Procedure: These experiments were performed according to Glickstein et al. with slight modifications. The MCF-7 cells were seeded in 96-well plates (10,000 cells/well) and allowed to adhere for 24 h/37°C. Cells were loaded with iron using the cellular iron donor, ferric ammonium citrate (530 μg/mL), 24 h prior to the experiment, and then washed. To prevent potential interference, especially with regard to various trace elements, the medium was replaced with ADS buffer (prepared using Millipore water supplemented with 116 mM NaCl, 5.3 mM KCl, 1 mM CaCl2, 1.2 mM MgSO4, 1.13 mM NaH2PO4, 5 mM D-glucose, and 20 mM HEPES, pH 7.4). Cells were then loaded with 2 μM of the cell-permeable calcein green acetoxymethyl ester (calcein-AM; Molecular Probes, Oregon, USA) for 30 min/37°C and washed. Cellular esterases cleave the acetoxymethyl groups to form the cell membrane-impermeable compound, calcein green. The fluorescence of calcein green is quenched upon binding iron. The intracellular fluorescence (λex = 488 nm; λem = 530 nm) of calcein green was then followed as a function of time (10 min after the addition of 10 μM Bp4eT or its metabolites) at 37°C using the Tecan Infinite 200M plate reader. The iron chelation efficacy of the metabolites in cells was expressed as a percentage of the efficacy of the parent chelator, Bp4eT (100%).

[3] = design: method as in PMID 24254882; details: E and Z isomers, after Bp4eT; cited from earlier work
[4] = tested on: 3T3 mouse embryo fibroblasts; experiment: MTT cytotoxicity assay, 3T3 cells; format: cell-based; details: Mus musculus, Fibroblast, 72 h, 3T3, 72 h; read-out: IC50
Procedure: as §1, §2, §3

[5] = Ascorbate oxidation assay (redox activity of iron complexes); format: biochemical; details: for %Fe 30min: ascorbate oxidation as % of the Fe control (Fe 100%): IBE 0.1, 30 min;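 as to %Fe 30min (ascorbate oxidation, Fe 100%), průměr: IBE 3 means excess free chelator over iron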;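 as to %Fe 30min (ascorbate oxidation, Fe 100%): IBE 3 means excess free chelator over iron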;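 as to %Fe 30min: ascorbate oxidation as % of the Fe control (Fe 100%): IBE 0.1 means iron-binding equivalents with iron in excess over chelator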;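 as to Change of absorbance, odečet 0 (time 0 subtracted), čas 10, průměr: IBE 3 means excess free chelator over 10 µM FeCl3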;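 as to Change of absorbance, odečet 0 (time 0 subtracted), čas 10: IBE 3 means excess free chelator over 10 µM FeCl3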
Procedure: The ascorbate oxidation assay was used to assess the redox activity of the iron complexes of the chelators using an established protocol. In brief, 100 μM ascorbic acid was prepared immediately prior to the experiment and incubated either alone or in the presence of 10 μM FeCl3 in a 50-fold molar excess (500 μM) of citrate and the chelators. Chelators were assayed at iron-binding equivalents (IBE) of 0.1 (excess of iron), 1 (fully coordinated iron—chelator complexes) and 3 (excess of free chelator). […] The decrease of absorbance between the two time points was calculated and expressed as a percentage of control without the chelator.

cancer cells = tested on: cancer cells; design: method as in PMID 17602603, PMID 23074173, PMID 2758414, PMID 20036563; details: cited from earlier work
[6] = sheet IBE 1, time 10, replicates
[7] = sheet IBE 1, time 20, replicates
[8] = sheet IBE 1, time 30, replicates

CCNC(=O)NN=C(c1ccccc1)c1ccccn1 [Bp4eS, 2-benzoylpyridine 4-ethylsemicarbazone]
IC50 [1]: 46 to 536 µM
Internalized 59Fe uptake, % of the control (MCF-7 cells): comparable to the untreated control
IC50 (H9c2 cardiomyoblasts): 343 µM
Chelation efficacy: fluorescence of free calcein at t = 600 s as percentage of Bp4eT [2]: ≤ 1.0%
Concentration in plasma [3]: < 20 nM
IC50 [4]: > 1000 µM

CC(=O)N(O)CCCCCNC(=O)CCC(=O)N(O)CCCCCNC(=O)CCC(=O)N(O)CCCCCN [DFO, deferoxamine, reference compound]
%Fe 30min: ascorbate oxidation as % of the Fe control (Fe 100%) ([5]; mean (průměr)): 95.6%
%Fe 30min: ascorbate oxidation as % of the Fe control (Fe 100%) ([5]; single wells): 92.32% and 94.84% and 89.62% and 108.6% and 104.8% and 93.48%
Change of absorbance after subtraction of time 0 (odečet 0) ([5]; IBE 0.1, time 10, mean (průměr)): -0.0289
Change of absorbance after subtraction of time 0 (odečet 0) ([5]; IBE 0.1, time 20, mean (průměr)): -0.06128
Change of absorbance after subtraction of time 0 (odečet 0) ([5]; IBE 0.1, time 30, mean (průměr)): -0.09056
Absorbance (ascorbate, λ = 265 nm) ([5]; IBE 0.1, čas 0 (time 0), mean (průměr)): 0.8374
Absorbance (ascorbate, λ = 265 nm) ([5]; IBE 0.1, čas 0 (time 0), single wells): 0.8482 and 0.8386 and 0.8297 and 0.8393 and 0.8347 and 0.8423
Absorbance (ascorbate, λ = 265 nm) ([5]; IBE 0.1, čas 10 (time 10), mean (průměr)): 0.8085
Absorbance (ascorbate, λ = 265 nm) ([5]; IBE 0.1, čas 10 (time 10), single wells): 0.8014 and 0.8085 and 0.8061 and 0.8115 and 0.8174 and 0.8155
Absorbance (ascorbate, λ = 265 nm) ([5]; IBE 0.1, čas 20 (time 20), mean (průměr)): 0.7761
Absorbance (ascorbate, λ = 265 nm) ([5]; IBE 0.1, čas 20 (time 20), single wells): 0.7691 and 0.7765 and 0.7756 and 0.7789 and 0.7837 and 0.7797
Absorbance (ascorbate, λ = 265 nm) ([5]; IBE 0.1, čas 30 (time 30), mean (průměr)): 0.7468
Absorbance (ascorbate, λ = 265 nm) ([5]; IBE 0.1, čas 30 (time 30), single wells): 0.7397 and 0.7469 and 0.7473 and 0.7447 and 0.754 and 0.7546
Ascorbate oxidation, % of the control ([5]; IBE 1): significant (p < 0.001) decrease
Ascorbate oxidation, % of the control ([5]; IBE 3): significant (p < 0.001) decrease
%Fe 30min (ascorbate oxidation, Fe = 100%), průměr (mean) ([5]; sheet IBE 1, 30min, Fe 100%, mean): 34.33%
%Fe 30min (ascorbate oxidation, Fe = 100%), single replicates ([5]; sheet IBE 1, 30min, Fe 100%, replicates): 31.7% and 34.66% and 23.38% and 46.3% and 44.12% and 39.04%
raw reading at čas 0 (time 0), průměr (mean) ([5]; sheet IBE 1, time 0, mean of 9 readings): 0.8386
raw reading at čas 0 (time 0), single replicates ([5]; sheet IBE 1, time 0, replicates of 2014-03-24 (two runs) and 2014-03-25): 0.8558 and 0.8596 and 0.828 and 0.8361 and 0.827 and 0.8501
odečet 0 (reading minus time 0 reading) at čas 10, průměr (mean) ([5]; sheet IBE 1, time 10, mean): -0.01
raw reading at čas 10 (time 10), průměr (mean) ([5]; sheet IBE 1, time 10, mean of 9 readings): 0.8286
odečet 0 (reading minus time 0 reading) at čas 10, single replicates [5, 6]: -0.00635 and -0.01167 and -0.00323 and -0.01849 and -0.01895 and -0.01001
raw reading at čas 10 (time 10), single replicates [5, 6]: 0.8216 and 0.8244 and 0.8238 and 0.8316 and 0.8369 and 0.8496
odečet 0 (reading minus time 0 reading) at čas 20, průměr (mean) ([5]; sheet IBE 1, time 20, mean): -0.0179
raw reading at čas 20 (time 20), průměr (mean) ([5]; sheet IBE 1, time 20, mean of 9 readings): 0.8207
odečet 0 (reading minus time 0 reading) at čas 20, single replicates [5, 7]: -0.01539 and -0.01649 and -0.00893 and -0.03069 and -0.02809 and -0.02068
raw reading at čas 20 (time 20), single replicates [5, 7]: 0.8126 and 0.8196 and 0.8181 and 0.8194 and 0.8278 and 0.8389
odečet 0 (reading minus time 0 reading) at čas 30, průměr (mean) ([5]; sheet IBE 1, time 30, mean): -0.0308
raw reading at čas 30 (time 30), průměr (mean) ([5]; sheet IBE 1, time 30, mean of 9 readings): 0.8078
odečet 0 (reading minus time 0 reading) at čas 30, single replicates [5, 8]: -0.02739 and -0.02994 and -0.0202 and -0.04369 and -0.04163 and -0.03684
raw reading at čas 30 (time 30), single replicates [5, 8]: 0.8006 and 0.8061 and 0.8068 and 0.8064 and 0.8142 and 0.8227
%Fe 30min (ascorbate oxidation, Fe 100%), průměr ([5]; sheet IBE 3, 30min, Fe alone = 100%, mean (průměr) of the 9 replicates): 14.03%
%Fe 30min (ascorbate oxidation, Fe 100%) ([5]; sheet IBE 3, 30min, Fe alone = 100%, single replicates): 16.83% and 16.2% and 10.25% and 18.5% and 12.77% and 8.453%
Change of absorbance, odečet 0 (time 0 subtracted), čas 10, průměr ([5]; sheet IBE 3, time 10 minus time 0, mean (průměr)): -0.00229
Change of absorbance, odečet 0 (time 0 subtracted), čas 10 ([5]; sheet IBE 3, time 10 minus time 0, single replicates): -0.00147 and -0.00159 and -0.00408 and -0.00649 and -0.00197 and 0.00214
Change of absorbance, odečet 0 (time 0 subtracted), čas 20, průměr ([5]; sheet IBE 3, time 20 minus time 0, mean (průměr)): -0.00588
Change of absorbance, odečet 0 (time 0 subtracted), čas 20 ([5]; sheet IBE 3, time 20 minus time 0, single replicates): -0.00984 and -0.00475 and -0.00555 and -0.0054 and -0.00607 and -0.00117
Change of absorbance, odečet 0 (time 0 subtracted), čas 30, průměr ([5]; sheet IBE 3, time 30 minus time 0, mean (průměr)): -0.01297
Change of absorbance, odečet 0 (time 0 subtracted), čas 30 ([5]; sheet IBE 3, time 30 minus time 0, single replicates): -0.01562 and -0.01504 and -0.00952 and -0.01694 and -0.01169 and -0.00774
IC50 values against cancer cells (cancer cells): μM range

O=C(O)c1ccc(-n2nc(-c3ccccc3O)nc2-c2ccccc2O)cc1 [deferasirox]
IC50 values against cancer cells (cancer cells): μM range
